The source of these data is ChEMBL document CHEMBL5150025, “Exploratory study of oxatomide derivatives with high P2X7 receptor inhibitory activity” (Bioorg Med Chem Lett, 2022).

Some results are limits rather than exact numbers.

As usually defined, the IC50 is the midpoint of a concentration-inhibition curve. The term inhibition denotes the percentage by which the read-out fell short of the control.

For one assay, the target named is T1, P2X purinoceptor 7 (Homo sapiens, UniProt Q99572).
T1 sequence (Q99572 whole entry): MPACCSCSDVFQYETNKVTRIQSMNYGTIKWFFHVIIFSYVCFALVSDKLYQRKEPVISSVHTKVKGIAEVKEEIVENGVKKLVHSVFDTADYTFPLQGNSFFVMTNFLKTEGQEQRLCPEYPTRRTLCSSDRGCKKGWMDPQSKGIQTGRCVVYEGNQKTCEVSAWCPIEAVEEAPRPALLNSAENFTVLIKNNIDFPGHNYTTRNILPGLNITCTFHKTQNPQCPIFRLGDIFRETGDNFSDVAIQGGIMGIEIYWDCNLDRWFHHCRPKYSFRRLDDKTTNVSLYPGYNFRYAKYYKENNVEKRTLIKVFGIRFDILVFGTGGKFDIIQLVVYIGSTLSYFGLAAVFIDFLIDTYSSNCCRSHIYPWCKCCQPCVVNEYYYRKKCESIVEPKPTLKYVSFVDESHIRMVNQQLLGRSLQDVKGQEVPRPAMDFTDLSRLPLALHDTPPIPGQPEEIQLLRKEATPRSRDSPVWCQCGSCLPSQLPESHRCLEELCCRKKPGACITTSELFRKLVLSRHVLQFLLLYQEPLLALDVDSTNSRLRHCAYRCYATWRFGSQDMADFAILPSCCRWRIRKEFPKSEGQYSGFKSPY
Description: Antagonist activity at P2X7 receptor in human RPMI-8226 cells assessed as inhibition of ATP-induced Ca2+ influx by fura-2 staining based assay. In kind it is cell-based.
Conditions: not given
Consider `O=c1[nH]c2ccccc2n1CCCN1CCC(C(O)(c2ccccc2)c2ccccc2)CC1`, for which the IC50 is 7500 nM.

Turning to `Cc1cc2ncn(CCCCN3CCN(C(c4ccccc4)c4ccccc4)CC3)c2cc1C`, the IC50 amounted to 770 nM.

Turning to `Fc1cccc2c1ccn2CCCCN1CCN(C(c2ccccc2)c2ccccc2)CC1`, the IC50 came to 150 nM. Same read-out and setting: to `c1ccc(C(c2ccccc2)N2CCN(CCCCn3ccc4ccccc43)CC2)cc1` belongs 120 nM. On to `c1ccc(-c2nc3ccccc3n2CCCCN2CCN(C(c3ccccc3)c3ccccc3)CC2)cc1`, for which the 50% inhibitory concentration (IC50) is 1200 nM. For the compound `c1ccc(C(c2ccccc2)N2CCN(CCCCn3cncn3)CC2)cc1`, the IC50 is over 10000 nM. Regarding `c1ccc(C(c2ccccc2)N2CCN(CCCCn3ccc4cccnc43)CC2)cc1`, the half-inhibitory concentration (IC50) amounted to 180 nM. Take `Cc1nnnn1CCCCN1CCN(C(c2ccccc2)c2ccccc2)CC1`: the IC50 was 4500 nM. Same read-out and setting: the same measure for `Cc1cccc2c1ccn2CCCCN1CCN(C(c2ccccc2)c2ccccc2)CC1`: 5300 nM; for `N#Cc1cn(CCCCN2CCN(C(c3ccccc3)c3ccccc3)CC2)c2ccccc12`: 1500 nM; for `O=C(C(c1ccccc1)c1ccccc1)N1CCN(CCCn2c(=O)[nH]c3ccccc32)CC1`: 7800 nM. Consider `O=c1[nH]c2ccccc2n1CCCCN1CCN(C(c2ccccc2)c2ccccc2)CC1`, for which the half-maximal inhibitory concentration (IC50) amounted to 180 nM. The same measure, in the same setting: to `Cc1nccn1CCCCN1CCN(C(c2ccccc2)c2ccccc2)CC1` belongs 3400 nM; to `N#Cc1ccc2c(ccn2CCCCN2CCN(C(c3ccccc3)c3ccccc3)CC2)c1`, 3800 nM.

On to `Fc1ccc2c(ccn2CCCCN2CCN(C(c3ccccc3)c3ccccc3)CC2)c1`, for which the IC50 is 120 nM. Take `c1ccc(C(c2ccccc2)N2CCN(CCCCn3ccc4ccncc43)CC2)cc1`: the IC50 is 240 nM.

With `O=c1[nH]c2ccccc2n1CCCN1CCN(S(=O)(=O)c2ccc([N+](=O)[O-])cc2)CC1`, the IC50 was over 10000 nM. Still for that read-out and setting: the same measure for `Fc1ccc2ccn(CCCCN3CCN(C(c4ccccc4)c4ccccc4)CC3)c2c1`: 110 nM; for `COc1ccc2c(ccn2CCCCN2CCN(C(c3ccccc3)c3ccccc3)CC2)c1`: over 10000 nM. Consider `O=c1[nH]c2ccccc2n1CCCN1CCN(C(c2ccccc2)c2ccccc2)CC1` [OXATOMIDE], for which the IC50 was determined as 830 nM. As to `O=c1[nH]c2ccccc2n1CCCN1CCC(=C(c2ccccc2)c2ccccc2)CC1`, the IC50 amounted to 2400 nM. For `c1ccc(C(c2ccccc2)N2CCN(CCCCn3nnc4ccccc43)CC2)cc1`, the IC50 was determined as 480 nM. On to `O=c1[nH]c2ccccc2n1C/C=C/CN1CCN(C(c2ccccc2)c2ccccc2)CC1`, for which the IC50 is over 10000 nM. The same measure, in the same setting: the same measure for `Cc1ccc2ccn(CCCCN3CCN(C(c4ccccc4)c4ccccc4)CC3)c2c1`: 6500 nM; for `c1ccc(-c2nnnn2CCCCN2CCN(C(c3ccccc3)c3ccccc3)CC2)cc1`: 3200 nM.

On to `c1ccc(C(c2ccccc2)N2CCN(CCCCn3ccc4cnccc43)CC2)cc1`, for which the IC50 worked out at 460 nM. Regarding `O=c1[nH]c2ccccc2n1CCCN1CCN(C2c3ccccc3CCc3ccccc32)CC1`, the IC50 came out at 5200 nM. As for `O=c1[nH]c2ccccc2n1CCCN1CCN(S(=O)(=O)c2ccc(F)cc2)CC1`, the IC50 was over 10000 nM. The same measure, in the same setting: the same measure for `Cc1nc2ccccc2n1CCCCN1CCN(C(c2ccccc2)c2ccccc2)CC1`: 850 nM; for `c1ccc(C(c2ccccc2)N2CCN(CCCCn3cnc4ccccc43)CC2)cc1`: 180 nM. In the case of `O=c1[nH]c2ccccc2n1CCN1CCN(C(c2ccccc2)c2ccccc2)CC1`, the IC50 was 950 nM.

With `Cc1ccc(S(=O)(=O)N2CCN(CCCn3c(=O)[nH]c4ccccc43)CC2)cc1`, the IC50 is over 10000 nM. On to `c1ccc(C(c2ccccc2)N2CCN(CCCCn3ccc4ncccc43)CC2)cc1`, for which the concentration for half-maximal inhibition (IC50) came to 320 nM. As to `Fc1cc2ccn(CCCCN3CCN(C(c4ccccc4)c4ccccc4)CC3)c2cc1F`, the IC50 worked out at 130 nM.

Take `c1ccc(C(c2ccccc2)N2CCN(CCCCn3ncc4ccccc43)CC2)cc1`: the IC50 was found to be 190 nM. On the same count and under the same terms, the same measure for `Cc1cccc2ccn(CCCCN3CCN(C(c4ccccc4)c4ccccc4)CC3)c12`: 2300 nM; for `O=c1[nH]c2ccccc2n1CCCCCN1CCN(C(c2ccccc2)c2ccccc2)CC1`: 560 nM; for `COC(=O)c1cccc2ccn(CCCCN3CCN(C(c4ccccc4)c4ccccc4)CC3)c12`: over 10000 nM.

The target of another assay is T2, P2X purinoceptor 7 (Homo sapiens) (UniProt Q99572).
T2 sequence (whole entry): T1 sequence (Q99572 whole entry)
Description: Antagonist activity at P2X7 receptor in human RPMI-8226 cells assessed as inhibition of ATP-induced Ca2+ influx at 10 uM by fura-2 staining based assay relative to control. In kind it is cell-based. The following applies: filed as antagonist.
Consider `c1ccc(C(c2ccccc2)N2CCN(CCCCn3cncn3)CC2)cc1`, for which the inhibition is 87%. On to `O=c1[nH]c2ccccc2n1CCCN1CCN(S(=O)(=O)c2ccc([N+](=O)[O-])cc2)CC1`, for which the inhibition was found to be 72%. On to `COc1ccc2c(ccn2CCCCN2CCN(C(c3ccccc3)c3ccccc3)CC2)c1`, for which the inhibition amounted to 54%. For the compound `O=c1[nH]c2ccccc2n1C/C=C/CN1CCN(C(c2ccccc2)c2ccccc2)CC1`, the inhibition amounted to 81%. The same measure, in the same setting: the same measure for `O=c1[nH]c2ccccc2n1CCCN1CCN(S(=O)(=O)c2ccc(F)cc2)CC1`: 87%.

With `Cc1ccc(S(=O)(=O)N2CCN(CCCn3c(=O)[nH]c4ccccc43)CC2)cc1`, the inhibition amounted to 64%.
